Measurements taken from patent US20140329692A1, “METHOD FOR MEASURING DNA METHYLATION PROFILES” (ALBERT EINSTEIN COLLEGE OF MEDICINE OF YESHIVA UNIVERSITY, priority 2013, published 2014).

What was measured:
promoter region of Oct4 = assay: DNA methylation profile of the Oct4 promoter in 5-Aza-treated MEFs (bisulfite treatment, MDA amplification, nested PCR, Sanger sequencing); type: cell-based, mouse; details: 1 μM 5-Aza
Text: To definitively test the protocol, it was investigated whether it was capable of directly detecting epimutations, i.e., random changes in methylation status of single cytosines as a consequence of, for example, errors in de novo or maintenance methylation. While estimates of DNA methylation accuracy have been reported (13, 14), it has never been possible to directly determine such epimutations. To test if the method was able to detect single cell-specific epimutations, a time course experiment was performed in MEFs treated with 5-azacytidine (5-Aza). 5-Aza prevents methylation at CpG sites in newly synthesized DNA through covalent binding to Dnmt1 (15). […] Cultured cells were treated with 1 μM 5-Aza for 48 and 72 hours; ten single cells as well as 100-cell controls from each treatment group were subjected to lysis and bisulfite treatment followed by MDA amplification. Then the promoter region of Oct4 was tested and it was shown that a fully methylated pattern of CpG sites was present in the untreated single fibroblasts as well as in the 100-cell control (FIG. 1B, upper panel).
Isolation of single mouse embryonic fibroblasts: Mouse embryonic fibroblasts (MEFs) were isolated from embryonic day 13.5 embryos of C57BL/6 mice as described (31). All cultures were maintained in a 3% O2 and 5% CO2 atmosphere. The solutions of 5-aza-2′-deoxycytidine (5-Aza; Sigma, St. Louis, Mo., USA) in culturing medium were prepared at the time of application and applied every 24 hours for 72 hours. After trypsinization, single MEFs were collected under an inverted microscope by hand-held capillaries, deposited in PCR tubes and immediately frozen on dry ice and stored at […] until needed or immediately bisulfite-converted.
Bisulfite conversion: The bisulfite conversion and recovery of DNA were performed using the EZ DNA Methylation-Direct Kit (Zymo Research, Orange, Calif.). Bisulfite conversion was performed according to the instructions of the supplier with some modifications. First the bisulfite solution was added to the single or 100 cells together with 2 ng of salmon sperm DNA or tRNA. […]

global methylation = details: 5-Aza treatment; cited from earlier work

Nc1ncn([C@H]2C[C@H](O)[C@@H](CO)O2)c(=O)n1 [5-Aza, 5-aza-2′-deoxycytidine]
demethylation of Oct4 promoter (promoter region of Oct4; 48 hours, 100-cell sample): < 50% | methylation status of Oct4 promoter CpG sites (promoter region of Oct4; 48 hours, single fibroblasts): a mixed population was found comprising either methylated or unmethylated cytosines | methylation status of Oct4 promoter CpG sites (promoter region of Oct4; 72 hours, both single fibroblasts and 100-cell control sample): fully demethylated | global methylation (global methylation): significant decrease in global methylation
